One data set has as its system MPanc96-luc cells. Type of data set: in vivo, athymic nude mice. The following applies: S-NACH 20 mg/kg s.c. daily, gemcitabine 100 mg/kg i.p. twice a week, 28 days. The method, then:
MPanc96-luc cells were harvested as described above and were orthotopically implanted (2×10^5 cells in 50 μl PBS per mouse) in the pancreas of anesthetized athymic nude mice. Just before treatment initiation, animals (n=10 per group) were randomized by tumor mass detected by an in vivo imaging system (IVIS, described below). Heparin derivatives S-NACH at 20 mg/kg and tinzaparin at 5 mg/kg were administered subcutaneously daily. Gemcitabine at 100 mg/kg was injected intraperitoneally twice a week alone or in combination with either S-NACH or tinzaparin. All mice used for treatment response evaluations were euthanized after 28 days. See Table 2 for the protocol of the study. Imaging was performed once per week to monitor tumor growth. Mice bearing MPanc96-luc tumors were anaesthetized using isoflurane, injected subcutaneously with 50 μl D-luciferin (30 mg/ml), then imaged. Photographic and luminescence images were taken at constant exposure time. Xenogen IVIS® Living Image software version 3.2 was used to quantify non-saturated bioluminescence in regions of interest. Light emission between 5.5×10^6-7.0×10^10 photons was assumed to be indicative of viable luciferase-labeled tumor cells while emissions below this range were considered as background. Bioluminescence was quantified as photons/second for each region of interest. In vivo tumor kinetic growth and metastasis were monitored by signal intensity. Ex vivo imaging was performed to confirm the signal intensity in the tumors after the termination. All specimens were analyzed by histology for routine analysis. Specimens were fixed in 10% buffered formalin, processed routinely, and embedded in paraffin. Then, after fixation, the specimens were transferred into the embedding chambers to hold the specimens in position until the paraffin became solid to prevent further rotation. Four μm serial sections were cut, and then stained using haematoxylin and eosin. Sections were evaluated for various pathologic parameters using a light microscope (Leica, Buffalo Grove, Ill.).

Data set [1] in a line: Whole blood clotting times by Sonoclot Analyzer and TEG. Type of data set: in vivo. Particulars: intravenous, 10 mg/kg, mice, n=5. As to the method:
Two heparins, commercial formulation Enoxaparin and non-anticoagulant heparin (NACH) including S-NACH or S-SNACH were evaluated for their effects on coagulation. Whole blood clotting times were measured by the Sonoclot Analyzer (left panel) and by TEG (right panel); n=5.

The test system of data set [2] is intrinsic pathway of the coagulation cascade. Description: APTT assay. Format: biochemical. As to the method:
Activated Partial Thromboplastin Time (aPTT) is sensitive to all factors in the intrinsic pathway of the coagulation cascade and the presence of heparin. The aPTT was measured for each of the 8 USP heparins, using the ACL 8000 Beckman Coulter coagulation analyzer and the Trinity Biotech Trini CLOT Automated aPTT assay kit (Berkeley Heights, N.J.). Additionally, aPTT was measured for heparin, LMWH, and S-NACH.

A short description of data set [3]: Mouse deaths over all experiments. Format: in vivo, mice. As to the method:
In the second experiment, a higher concentration of S-SNACH (20 mg/kg) was used. […] The percentile death of mice was high in the LMWH group and reached 6 animals (50%) at the end of the experiment due to internal bleeding after two invasive surgeries. At the end of all experiments, the percentile death among all groups was calculated and compared.
The average dose of LMWH for enoxaparin in humans is 1.0-1.5 mg/kg and relatively higher in mice. In the experiment performed in the present invention, 5-10 mg/kg was used for LMWH (tinzaparin) and as high as 20-100 mg/kg was used for SNACH.

In another data set the test system is 253JBV bladder cells. The experiment in a line: Western blots of bladder cancer cell proteins. The following applies: 48 hour; Cisplatin 10 ug/ml, S-NACH 20 ug/ml, LMWH 20 ug/ml. Type of data set: cell-based. The method, then:
253JBV bladder cells were cultured and treated [Control (PBS), Cisplatin (10 ug/ml), S-NACH (20 ug/ml), LMWH (20 ug/ml)] for 48 hour. Total proteins were collected to quantitate expression of the proteins using western blots.
A general note: In western blotting, separated proteins are transferred to a membrane and probed.

Another data set has as its system MCF7-WT cells. The experiment in a line: Nanoparticle Dox formulations in mice with MCF7-WT tumors. Type of data set: in vivo. The following applies: treatment begun 10 days after inoculation; n=8. From the text: Mice were inoculated with 1.4×10^7 MCF7-WT cells. […] Tumor volume measurements were obtained over time course shown. Values are mean tumor volume in mm^3±SEM, n=8 mice/group.

A further data set deals with MCF7-R cells. Description: Nanoparticle Dox formulations in mice with MCF7-R tumors. Format: in vivo. The method, then:
FIG. 20 depicts anti-tumor efficacy of nanoparticle formulations encapsulating Doxorubicin with and without LMWHs vs. un-encapsulated Doxorubicin in mice with MCF7-R Tumors, in accordance with embodiments of the present invention. […] Treatments, as shown in legend, were begun after tumors had reached a size of 50-100 mm^3. Tumor volumes were measured daily. Animals were euthanized when Controls reached a size of 2000 mm^3 (as per IACUC approval).
In vivo data using in mice xenograft (MCF-7R) are shown in Table 5 (amounts of doxorubicin and NACH injected in all cases were 0.625 mg/kg and 2.5 mg/kg body weight).

Like-named read-outs stand apart in the source and are kept apart here.

In the case of `Nc1ccn([C@@H]2O[C@H](CO)[C@@H](O)C2(F)F)c(=O)n1` [Gemcitabine], the figures for the “tumor luciferin signal intensity” value in the data set on MPanc96-luc cells and in the data set on MPanc96-luc cells (listed as GEM) were “reduced” and “suppression of tumor signal intensity”, respectively. Moreover, the tumor weights result in the data set on MPanc96-luc cells is “reduced”.
With Enoxaparin, in data set [1], the “clot times (whole blood clotting time, time to clot initiation)” value is “significantly prolonged”.
In the case of Heparin, in data set [2], the aPTT result is reported as “increased aPTT in a dose-dependent manner”. For the same compound, the “rate of death among the mice” value in data set [3] was “higher mortality”.
Regarding `N.N.[Cl][Pt][Cl]` [Cisplatin], in the data set with 253JBV bladder cells, the E-cadherin protein expression entry is on record as “increased” and the MMP-2 protein expression entry is “reduced”.
With `COc1cccc2c1C(=O)c1c(O)c3c(c(O)c1C2=O)C[C@@](O)(C(=O)CO)C[C@@H]3O[C@H]1C[C@H](N)[C@H](O)[C@H](C)O1` [Doxorubicin], the “tumor growth (tumor volume)” value in the data set with MCF7-WT cells is “effectively inhibited”. The “tumor volume over time” value in the data set on MCF7-R cells (FIG. 20 Panel A) is “same pattern of tumor growth as untreated controls”. In addition, the “Tumor Mass” value with MCF7-R cells (doxorubicin 0.625 mg/kg, NACH 2.5 mg/kg body weight, mean) worked out at 1.3 g.

The values above are taken from patent US9572831B2, “Composition and method for sulfated non-anticoagulant low molecular weight heparins in cancer and tumor metastasis” (priority 2013, dated 2017).
